How the values were obtained:
HepG2 hepatocytes = test: Co-culture assay: Specific Chol Uptake into HepG2 hepatocytes on insert membrane; type: cell-based, human; conditions: for reduction of hepatic Specific Chol Uptake: 10 μM, HepG2 overnight and during co-culture
Excerpt: (§1) Total Chol Efflux is the sum of co-culture medium counts plus hepatic counts, while Total Chol Uptake is defined as hepatic counts only. Both Chol Efflux and Chol Uptake are expressed as % of total counts in the system. Background values, corresponding to basal co-culture medium (without acceptors), can be subtracted from the corresponding values in presence of acceptors to obtain Specific Chol Efflux (%) and Specific Chol Uptake (%) values.
(§2) Simultaneous Measurement of Cholesterol Flux Between Cholesterol-Loaded, ^3H-Cholesterol-Labeled J774 Cells and Target HepG2 Hepatocytes in a Transwell-Clear™ Insert.
(§3) J774 cells were seeded at a density of 8,000 cells per cm^2 in 1 mL of Dulbecco's minimal essential medium (DMEM, high glucose) and supplemented with 10% fetal bovine serum (FBS) and 1% penicillin/streptomycin in standard 12-well (3.8 cm^2) flat bottom plates (Corning).
(§4) Transwell-Clear™ 12-well plates (Corning, cat. #3642), each consisting of 12 cylindrical cell culture inserts (1.12 cm^2 insert/well) were bathed with 2 mL Eagle's minimal essential medium (EMEM, low glucose) distributed as follows: 0.5 mL in the insert and 1.5 mL in the well. Loaded plates were pre-incubated in an incubator at 37° C. with 5% CO2 for 30-45 min without cells in order to improve later cell attachment and maximize cell spreading on the insert membrane during cell culture. After pre-incubation, the media was removed. The wells of the Transwell plates were then filled with 1.5 mL of EMEM (low glucose) supplemented with 10% FBS and 1% penicillin/streptomycin and HepG2 cells were seeded at a density of 60,000 cells per cm^2 in 0.5 mL EMEM (low glucose) supplemented with 10% FBS and 1% penicillin/streptomycin on each insert.
(§5) Following seeding in plates or inserts, both cell types were placed in a cell incubator at 37° C. filled with humidified air and 5% CO2 and incubated for 72 h.
(§6) Following the 72-hour incubation and achieving a J774 cell confluence of 70-80%, the J774 cells were washed with 1 mL per well of PBS at 20° C. After the wash, 1 mL of Labeling Medium was added to each well. The Labeling Medium contained: 1% FBS, 1% penicillin/streptomycin, 2 μCi/mL of ^3H-cholesterol (Perkin-Elmer, NET139005MC), 50 μg protein/mL of acetylated LDL (acLDL) and DMEM (high glucose). The cells were then incubated for 24 hr at 37° C. in a cell incubator filled with humidified air and 5% CO2. One plate served as a reference to determine the labeled-cholesterol level in cells prior to co-culture assay.
(§7) Following the 72-hour incubation, the culture medium was removed from HepG2 cells grown on the insert membrane and replaced with 2 mL of fresh EMEM (low glucose) supplemented with 10% FBS and 1% penicillin/streptomycin. The cells were then incubated for an additional 24 hours at 37° C. in an incubator filled with humidified air and 5% CO2.
(§8) Following the 24-hour incubation of J774 cells, the labeling medium was removed from the plates and discarded. The cells were then washed with 1 mL of phosphate-buffered saline (PBS) at 20° C. and replaced with Equilibration Medium containing: DMEM (high glucose), 0.2% Bovine Serum Albumin (BSA) (low endotoxin, fatty acid-free, Sigma, cat. #A8806) and the appropriate Treatment under study. The J774 culture was then incubated for 24 hours.
(§9) J774 cells ongoing the ^3H-cholesterol equilibration phase and/or HepG2 cells before co-culture can be treated by various means. Pharmacological agent is diluted in the appropriate culture medium with 0.2% BSA and vehicle (solvent) is tested in parallel. Modulation of gene expression is also accomplished at this step, by transfection of siRNA according to the manufacturer's protocol, and a control non-silencing RNA is tested in parallel.
After 24 hour of incubation, equilibration medium from J774 culture and culture medium from HepG2 cells were discarded. Cells were washed with 1 mL (J774) or 2 mL (HepG2) of PBS at 20° C. and the wash medium discarded.

J774 macrophages = test: Co-culture assay: Specific Chol Efflux from 3H-cholesterol-labeled J774 macrophages; type: cell-based, murine
Excerpt: as §1, §2, §3
as §4, with “Loaded” for “Transwell-Clear™ 12-well plates (Corning, cat. #3642), each consisting of 12 cylindrical cell culture inserts (1.12 cm^2 insert/well) were bathed with 2 mL Eagle's minimal essential medium (EMEM, low glucose) distributed as follows: 0.5 mL in the insert and 1.5 mL in the well. Loaded”
as §5, §6, §7, §8, §9
After 24 hour of incubation, equilibration medium from J774 culture and culture medium from HepG2 cells were discarded. Cells were washed with 1 mL (J774) or 2 mL (HepG2) of PBS at 20° C. and the wash medium discarded. Transwell inserts containing HepG2 cells were removed and transferred to each well containing the J774 culture. 2 mL of co-culture media (DMEM without phenol red, high glucose, 4.5 g/L) were added to each well. The resulting co-culture system was incubated in a cell incubator at 37° C. for 24 hours.

[1] = J774 pre-treated overnight 10 μM, acceptors HS and DHS, vs vehicle DMSO
[2] = 24 h co-culture, one-site non-linear regression
[3] = purified acceptor, 24 h co-culture, one-site non-linear regression
[4] = 10 nM in co-culture medium for 24 h, acceptor complete human serum

Q: With `O=S(=O)(c1ccccc1)N(CC(F)(F)F)c1ccc(C(O)(C(F)(F)F)C(F)(F)F)cc1` [TO901317] as the molecule, how does the “effect on Specific Chol Uptake” value (HepG2 hepatocytes; [1]) read?
A: increased

Q: What about the “effect on Specific Chol Efflux” value (J774 macrophages; [1]) of the same molecule?
A: increased

Q: With `CC[C@H](C)C(=O)O[C@H]1CCC=C2C=C[C@H](C)[C@H](CC[C@@H]3C[C@@H](O)CC(=O)O3)[C@H]21` [mevastatin] as the molecule, how does the “effect on Specific Chol Uptake” value (HepG2 hepatocytes; HepG2 pre-treated overnight 25 μM, acceptor apoB-depleted serum) read?
A: reduced effect

Q: And the “effect on Specific Chol Uptake” value (HepG2 hepatocytes; HepG2 pre-treated overnight 25 μM, acceptor complete human serum)?
A: significantly increased

Q: And the “effect on Chol Uptake” value (HepG2 hepatocytes; hepatocytes pre-treated 10 μM, acceptor apoB-depleted serum, compared to complete serum)?
A: reduced effect

Q: What about the “effect on hepatic Chol Uptake” value (HepG2 hepatocytes; hepatocytes pre-treated 10 μM, acceptor complete human serum) of the same molecule?
A: increased

Q: And the “effect on Specific Chol Efflux” value (J774 macrophages; HepG2 pre-treated overnight 25 μM, acceptor human serum)?
A: did not change

Q: What about the “effect on Chol Efflux to human serum” value (J774 macrophages; hepatocytes pre-treated 10 μM, acceptor human serum) of the same molecule?
A: no effect

Q: Which results are given for `CCOC(=O)N1c2ccc(C(F)(F)F)cc2[C@@H](N(Cc2cc(C(F)(F)F)cc(C(F)(F)F)c2)C(=O)OC)C[C@H]1CC` [torcetrapib]?
A: reduction of hepatic Specific Chol Uptake (HepG2 hepatocytes; acceptor apoB-depleted serum): 21%; reduction of hepatic Specific Chol Uptake (HepG2 hepatocytes; acceptor apoB-depleted serum, listed as Torcetrapib): reduced; reduction of hepatic Specific Chol Uptake (HepG2 hepatocytes; acceptor complete serum): 31%; reduction of hepatic Specific Chol Uptake (HepG2 hepatocytes; acceptor complete serum, listed as Torcetrapib): reduced; effect on Specific Efflux (J774 macrophages; 10 μM, HepG2 overnight and during co-culture, acceptors HS and DHS): did not affect

Q: With “ApoA-I: human apolipoprotein A-I, purified, used as Chol acceptor” as the molecule, how does the “Bmax (maximal flux), Specific Uptake” value (HepG2 hepatocytes; [2]) read?
A: 0.83 ± 0.03%

Q: And the “kA (affinity constant), Specific Uptake” value (HepG2 hepatocytes; [3])?
A: 7.0 ± 1.0 μg protein/mL

Q: What about the “Bmax (maximal flux), Specific Efflux” value (J774 macrophages; [2]) of the same molecule?
A: 15.9 ± 0.9%

Q: What about the “Specific Chol Efflux compared to LDL” value (J774 macrophages; acceptor at 100 μg/ml, 24 h co-culture) of the same molecule?
A: higher

Q: And the “kA (affinity constant), Specific Efflux” value (J774 macrophages; [3])?
A: 7.2 ± 1.4 μg protein/mL

Q: How did the “effect on Specific Chol Uptake” value (HepG2 hepatocytes; [4]) turn out when “PCSK9 D374Y: purified human PCSK9 gain-of-function D374Y mutant protein” was run?
A: markedly reduced

Q: And the “effect on Specific Chol Efflux” value (J774 macrophages; [4])?
A: no effect

Q: What about the “effect on Specific Chol Efflux” value (J774 macrophages; 10 nM in co-culture medium for 24 h, acceptor complete human serum, listed as purified PCSK9 mutant) of the same molecule?
A: did not influence

Reference: patent publication US11840707B2, “Co-culture system and method for in vitro assessment of reverse cholesterol transport” (INSTITUT DE CARDIOLOGIE DE MONTREAL, priority 2016, dated 2023)
